“Also recorded” adds a separate entry of the source. Where two headings read alike, the source gives them in different places. Some results are limits rather than exact numbers.

One series deals with T1, BCL-XL.
T1 construct: purchased Abcam
In words: SPR binding to BCL-XL. As for the experimental part:
(§1) The MYC SPR assay was carried out as described above with MYCbHLHZip immobilized to a level of 800–1000 RU. For kinetic binding experiments, a Langmuir 1:1 binding event was applied using the Biacore T200 Evaluation Software 2.0 (GE Healthcare) to determine association (ka) and dissociation (kd) constants of the compound and to calculate affinity (KD) by the formula; KD = kd/ka. Binding responses from equilibrium binding experiments were plotted against compound concentration and KD values were determined at 50% of the theoretical Rmax with the formula Rmax = (MW analyte/MW ligand) × immobilized ligand level on the chip (RU) × stoichiometry (1:1). Same coupling method described above was used to immobilize the control proteins. MAX was immobilized to approximately 2000 RU, MAD to 600 RU, BSA to 1000 RU, p53 to 3000 RU and BCL-XL, to 500 RU.

The test system of series [1] is HOmyc3 (MYC reconstituted HO15.19) Rat1 fibroblasts. In words: WST-1 growth assay, HOmyc3 (MYC reconstituted) Rat1 fibroblasts. The series is classed as cell-based, rat. As for the experimental part: (§2) Cell proliferation assays. Cell growth and viability was estimated in triplicates with WST-1
(§3) (Roche) or Resazurin sodium salt (Sigma-Aldrich) assays in medium at 37°C and 5% CO 2 for
(§4) 2 hours after which absorbance or fluorescence, respectively, was measured with an Omega
(§5) Fluostar (BMG Labtech) in a 96 well plate format. […]
(§6) 0.7% agarose. […]
On the technique in general: Formazan colour is commonly taken as a measure of viable cells.

Another series has as its target T2, MYC bHLHZip (Homo sapiens, UniProt P01106).
T2 construct: 6xHis (N); made in house; host or cells: E. coli BL21 (DE3), pET28a; purified in denaturing conditions
In words: SPR direct binding to immobilized MYC. As for the experimental part:
Further, MYCMI-6 binding to MAX, MXD1 (MAD1) (Figs 4C and S5C and D), p53 (Fig. 4D), BSA (Suppl. Fig. S5E) and YFP (data not shown) were negligible. Binding to BCL-XL was only 10% of the theoretical maximum at 2 μM MYCMI-6 (Suppl. Fig. S5F).
as §1

The subject of series [2] is normal IMR-90 and BJ human fibroblasts. In words: Viable/dead cell counting, normal fibroblasts. The series is classed as cell-based. As to conditions: 12.5 μM, 24 hours. As for the experimental part: Triton-X-114 (Sigma). Truncated p53 core protein was a kind gift from Klas Wiman, CCK, […]
Cell proliferation assays. Cell growth and viability was estimated in triplicates with WST-1 (Roche) or Resazurin sodium salt (Sigma-Aldrich) assays in medium at 37°C and 5% CO 2 for 2 hours after which absorbance or fluorescence, respectively, was measured with an Omega Fluostar (BMG Labtech) in a 96 well plate format. Cell counting was done in 96 well plates with CellTracker Green (ThermoFisher) for 30 min in the incubator, after which DAPI was added for 5 min. Images were taken in the green (FITC) and blue (DAPI) channels using a fluorescence microscope (ImageXpress Micro, Molecular Devices). […] After 16 days, the colonies were stained with 100 µg/ml MTT (Sigma) overnight and colonies were counted.
Immunohistochemistry. Apoptosis was visualized at the single-cell level on tumor cryosections using the TUNEL method using the In Situ Cell Death Detection Fluorescein-Roche kit and analyzed by fluorescence microscopy. […] Cell proliferation and microvascular density (MVD) were evaluated through Ki67 and CD31staining, respectively, on tumor cryosections and detected by immunofluoresence. […] For quantification, areas with positive TUNEL and Ki67 staining were measured using Image J software. For the analysis of MVD, the number of vessel structures per microscopic field was calculated.

The subject of series [3] is MYCN-non-amplified neuroblastoma cells (SK-N-F1, SK-N-AS, SK-N-RA). In words: Resazurin growth assay, MYCN-non-amplified neuroblastoma cell lines. It counts as cell-based. The text has this: HEK293A, MCF7, MDA-MB231, SK-N-F1, SK-N-RA, SK-N-AS, COS-7, HeLa, BJ cells, and Rat1 fibroblasts TGR-1 (wt), HO15.19 (MYC knockout) and HOmyc3 (MYC reconstituted HO15.19) were maintained in DMEM. The neuroblastoma cell lines Kelly, IMR-32 and SK-N-DZ, and the Burkitt’s lymphoma cell lines Mutu, Daudi and ST486 were kept in RPMI. SK-N-BE(2) cells were maintained in a 1:1 mixture of EMEM and F12 media, supplemented with 1% non-essential amino acid solution (NEAA) and 0.5% Glutamine. U2OS-MYC-ER cell lines were cultured in phenol-red free DMEM and treated with 100 nM 4-hydroxytamoxifen (HOT) (Sigma-Aldrich) to activate MYC-ER. IMR-90 was maintained in MEM. […]
Cell proliferation assays. Cell growth and viability was estimated in triplicates with WST-1 (Roche) or Resazurin sodium salt (Sigma-Aldrich) assays in medium at 37°C and 5% CO 2 for 2 hours after which absorbance or fluorescence, respectively, was measured with an Omega Fluostar (BMG Labtech) in a 96 well plate format. […] Images were taken in the green (FITC) and blue (DAPI) channels using a fluorescence microscope (ImageXpress Micro, Molecular Devices). […] After 16 days, the colonies were stained with 100 µg/ml MTT (Sigma) overnight and colonies were counted.
Immunohistochemistry. […] For quantification, areas with positive TUNEL and Ki67 staining were measured using Image J software. […]

For series [4], the system named is TGR-1 (wt) Rat1 fibroblasts. In words: WST-1 growth assay, TGR-1 (wt) Rat1 fibroblasts. The series is classed as cell-based, rat. As for the experimental part:
as §2, §3, §4, §5, §6

Another series concerns T3, p53 core protein.
T3 construct: Truncated p53 core protein was a kind gift from Klas Wiman; gift from Klas Wiman, CCK, Karolinska Institutet
In words: SPR binding to p53. The protocol: as §1
On the technique in general: Surface plasmon resonance follows binding to a sensor surface in real time, without labels.

A further series concerns T4, MYC:MAX.
T4 construct: fused to full length MYC (MYC-GLuc-C) and MAX (MAX-GLuc-N), respectively; expressed in transfected cells; host or cells: HEK293
In words: Gaussia luciferase complementation (GLuc) MYC:MAX. The conditions noted are these: 25 μM, 17 hours, HEK293 cells. The series is classed as cell-based, human. The protocol:
The protein fragment complementation assay using the Gaussia luciferase has been described. 0.2–0.4 μg of each GLuc-construct (see Supplementary Information) together with 0.05–0.2 μg pCMV-Luc (Firefly luciferase) were transiently transfected into HEK293 or COS-7 cells in 6-well plates. 24 hours later cells were treated with compound (10–25 μM) or DMSO. After another 17 hours, the cells were harvested and lyzed in passive lysis buffer (Promega) supplemented with complete protease inhibitor (Roche). After 60 min incubation at room temperature 20 μM D-luciferin was added (substrate of Firefly luciferase) and luminescence was measured in a Lumat LB9501 (Berthold) or OmegaFluostar (BMG Labtech) luminometer. Directly after, Gaussia luciferase substrate Coelenterazine (Promega) was added to a final concentration of 20 μM in a mixture with “Stop n’ Glow” (Promega) and the luciferase activity was measured. The ratio between Gaussia and Firefly luciferase values were calculated and normalized to DMSO-treated control cells.

T2 sequence (P01106 367-447 limits assumed): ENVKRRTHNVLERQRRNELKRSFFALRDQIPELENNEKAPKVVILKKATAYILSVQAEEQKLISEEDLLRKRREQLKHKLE

As for `CCOc1ccc2nc3cc(/N=N/c4ccc(N)nc4N)ccc3c(N)c2c1` [MYCMI-6], the “fold lower affinity for BCL-XL than for MYC” value in the series with BCL-XL is given as no less than 5 fold. The “binding to BCL-XL, % of the theoretical maximum (SPR)” value in the series on BCL-XL (2 μM MYCMI-6) is listed as 10%. Also, in series [1], the “growth of MYC reconstituted (HOmyc3) cells” value was “strongly inhibited growth”. The Kd is 1600 ± 500 nM on MYC bHLHZip (1:1 Langmuir model, four kinetic experiments, read-out: KD for MYC bHLHZip, SPR kinetic experiments, average); 1500 to 2000 nM on MYC bHLHZip (50% of Rmax, four equilibrium experiments, read-out: KD for MYC bHLHZip, SPR equilibrium binding plot); 2500 nM at MYC bHLHZip (Langmuir 1:1, constant Rmax 43 RU, read-out: KD for MYC bHLHZip, SPR, one representative kinetic experiment). Besides, at MYC bHLHZip (SPR, representative experiment, read-out: association rate ka), the kon amounted to 9290 M⁻¹ s⁻¹. Besides, on MYC bHLHZip (SPR, representative experiment, read-out: dissociation rate kd), the koff came to 0.0229 s⁻¹. Further, in series [2], the “number of viable cells and percentage of dead cells, normal fibroblasts” value is listed as “only marginal effects; also recorded: not cytotoxic”. This compound also gave a GI50 in series [3] (Homo sapiens, SK-N-AS, 48 hours, resazurin) of no less than 20000 nM. Besides, the “response of SK-N-F1 cell line” value in series [3] (SK-N-F1, 48 hours) is given as “essentially did not respond at all”. Further, the “growth of wt (TGR-1) cells” value in series [4] was “strongly inhibited growth”. Further, the “binding to p53 (SPR)” value with p53 core protein was “negligible”. For the same compound, the “MYC:MAX GLuc activity” value in the series on MYC:MAX is “most potent”.

For orientation: Kd means the concentration at which binding is half-saturated. As a reminder, the GI50 is the concentration that inhibits growth by half. A low value points to more potent growth inhibition.

Values taken from paper PMC6030159 (Scientific Reports, 2018).
